Results reported in patent US20110129463A1, “Quinazolin-4(3A)-One Derivatives and Methods of Use Thereof” (Proteologics, Ltd., priority 2009, published 2011).

Tests used:
A375 cells = assay: Viability of A375 cancer cells (WST-1 reagent); format: cell-based; settings: viability 72 hours post treatment
Protocol: A375 cells (CRL-1619, Melanoma cancer cells, American Type Culture Collection (“ATCC”), Manassas Va., USA) were cultured with RPMI and 10% FBS (300 cells per well). Twenty-four hours after seeding the cells were treated with different concentrations of Compound A. Viability of the cells was tested seventy-two hours post treatment using WST-1 reagent (Roche). The LD50s were calculated using Prism software (Graphpad). Compound A killed the A375 cancer cells with LD50 of 20 μM (FIG. 2A).

A375 melanoma cell line = assay: TRANSWELL cell migration of A375 melanoma cells; format: cell-based; settings: Homo sapiens, A-375, 24 hours, read-out: IC50 of inhibitory effect on cell-migration
Protocol: The A375 cells were cultured with RPMI and 10% FBS. The cells were starved for 24 hours in medium without FBS. At the end of the starvation, 5×10^4 cells in medium without FBS were placed in the upper chamber of 24-well, TRANSWELL apparatus (Corning TRANSWELL® polycarbonate membrane inserts, 5 μm pore size with solvent (DMSO/PEG400) or different concentrations of Compound A, B, C or D. Medium with FBS and compound A, B, C or D was added to the bottom chamber. Twenty-four hours later the cells from the upper chamber were removed with a cotton swab. Cells that migrated to the lower side of the membrane were stained with Calcein-AM (Sigma) and images were taken with a fluorescence microscope. The number of migrating cells was quantified by Image J software and the IC50 values were calculated using Prism software (Graphpad).

[1] = test system: D122 Lewis lung cancer cells; assay: Formation of lung cancer metastasis, D122 cells injected into tail vein; format: in vivo, C57BL mice; settings: 20 mg/kg intraperitoneal twice daily for 28 days
Protocol: Suppressive activity against formation of lung cancer metastasis was tested using D122 Lewis lung cancer cells injected into the tail vein of male C57BL mice. Animals were treated twice daily by intraperitoneal injection of Compound A at 20 mg/kg or solvent (5% DMSO, 10% PEG400, 5% Solutol HS15, 5% Tween 80). Treatment was continued for 28 days. On day 33, animals were sacrificed, lungs were removed and weighed. When the Compound A and vehicle groups are compared, there is about a 50% decrease in added lung weight in the Compound A group (FIG. 3). The average weight gain in the control group was 250 mg while in the Compound A group it was only 125 mg. Analyzing the data using two tailed T test indicate a the data is significant (pValue=0.0085). The effect seen following administration of Compound A, supports the claim that this compound has anti-metastatic activity.

oxazolone-induced DTH = assay: Oxazolone-induced delayed-type hypersensitivity (DTH), ear swelling; format: in vivo, BALB/c mice; settings: oral, 1 hour before oxazolone challenge; compared with the control
From the text: A delayed-type hypersensitivity (DTH) reaction is an expression of cell-mediated immunity and plays a major role in the pathology and chronicity of many inflammatory disorders. Delayed-type hypersensitivity (DTH) reactions can be induced by various allergens, including oxazolone, 2,4-dinitrofluorobenzene (DNFB) and sheep red blood cells (SRBCs). One of the most characteristic DTH phenomena is contact hypersensitivity, which is characterized by swelling and by increased tissue levels of cytokines. Contact hypersensitivity (CHS) is a T cell-mediated immune reaction in response to cutaneous sensitization and challenge with reactive haptens that are capable of binding directly to soluble and cell-associated proteins and recognized by T cells in the context of self-MHC products. The cells that recognize antigen-protein complex in the skin are the Langerhans cells (LCs). After topically allergen application, Langerhans cells (LCs), the major antigen-presenting cells (APCs) for the induction of immune responses in skin, show enhanced expression of surface MHC class II molecules, and start to emigrate from the skin to regional lymph nodes where specific lymphocyte activation is thought to occur. After a second contact with the hapten, T cells are first recruited into tissues and then activated by antigen-presenting cells to produce cytokines that mediate local inflammation. Myeloperoxidase (MPO) is an enzyme exclusively present in neutrophil granules, which is commonly used as an index of granulocyte infiltration, and its inhibition is indicative of an anti-inflammatory action.
The goal of the present study is to examine the effects of Compounds A, B and C on oxazolone-induced DTH. […]
Ear swelling response was determined by ear thickness measured with a micrometer before and 24 hours after oxazolone challenge and reported as the mean change in ear thickness (ΔT±S.E.M.). Percent suppression of ear swelling response was calculated as % suppression=[1−(ΔT of sensitized mice exposed to experimental treatment/ΔT of sensitized mice exposed to vehicle treatment)]×100. […]

EAE = EAE model for multiple sclerosis, clinical score; format: in vivo, CSJL/F1 mice
Protocol: The EAE model in CSJL/F1 mice is an established model for multiple sclerosis. Disease is induced in all mice by the injection of the encephalitogenic emulsion (MSCH/CFA, 0.05 ml injected into the left foot-pad of each mouse). Treatment with Compound A at 10 and 20 mg/kg or solvent (5% DMSO, 10% PEG400, 5% Solutol HS15, 5% Tween 80) by intraperitoneal injection, was started from day 1 of the study and administered twice daily in the first 9 days and then once daily until the end of the study. Scoring of EAE clinical signs were initiated from the 10th day post-EAE induction and continued daily. The clinical signs were recorded according to a grading system described in the table 1.

SMILES | LD50 (killing of A375 cancer cells) (A375 cells) | IC50 (A375 melanoma cell line) | average weight gain (added lung weight) ([1]; day 33, control group 250 mg) | decrease in added lung weight vs vehicle group ([1]; lungs weighed on day 33) | anti-inflammatory activity in DTH study (FIG. 7) (oxazolone-induced DTH) | effect on EAE clinical signs (EAE; 10 mg/kg intraperitoneal) | EAE clinical signs relative to the score for water and vehicle controls (EAE; 20 mg/kg intraperitoneal)
O=c1c2ccccc2nc(/C=C/c2ccc(O)cc2)n1-c1cccc([N+](=O)[O-])c1 [Compound A, 2-[2-(4-Hydroxyphenyl)-vinyl]-3-(3-nitrophenyl)-4-quinazolone] | 20 µM | 100 nM | 125 mg | ~50% | same anti-inflammatory activity as the control | No effect | about half
Cn1ccc(/C=C/c2nc3ccccc3c(=O)n2-c2cccc(N(O)O)c2)n1 [Compound D, (E)-3-(3-(dihydroxyamino)phenyl)-2-(2-(1-methyl-1H-pyrazol-3-yl)vinyl)quinazolin-4(3H)-one] |  | 61 nM |  |  |  |  | 
COc1ccc(/C=C/c2nc3ccccc3c(=O)n2-c2cccc([N+](=O)[O-])c2)cc1 [Compound B, (E)-2-(4-methoxystyryl)-3-(3-nitrophenyl)quinazolin-4(3H)-one] |  | 45 nM |  |  | same anti-inflammatory activity as the control |  | 
O=c1c2ccccc2nc(/C=C/c2ccc(Br)cc2)n1-c1cccc([N+](=O)[O-])c1 [Compound C, (E)-2-(4-bromostyryl)-3-(3-nitrophenyl)quinazolin-4(3H)-one] |  | 920 nM |  |  | same anti-inflammatory activity as the control |  | 
